Test results taken from ChEMBL document CHEMBL6109130, “PaAP-Activatable NIR Probe for Diagnosing, Imaging, and Discovering Small-Molecule Therapeutics against Implant-Associated Biofilm Infections” (J Med Chem, 2025).
Calls of active or inactive are those of the source. The calls are words filed in the database; no cut-off is given here.

How the values were obtained:
[1] = Cytotoxicity against human HepG2 cells assessed as cell viability at 25 uM measured after 24 hrs by CCK-8 assay relative to control; format: toxicity, cell-based; conditions: read-out: Activity
[2] = Cytotoxicity against human HT-1080 cells assessed as cell viability at 25 uM measured after 24 hrs by CCK-8 assay relative to control; format: toxicity, cell-based; conditions: read-out: Activity
[3] = Cytotoxicity against mouse BV-2 cells assessed as cell viability at 25 uM measured after 24 hrs by CCK-8 assay relative to control; format: toxicity, cell-based; conditions: read-out: Activity
[4] = test system: Pseudomonas aeruginosa; assay: Antimicrobial activity against Pseudomonas aeruginosa ATCC27853 assessed as viability at 50 uM; format: functional, organism-based
[5] = Cytotoxicity against human A-375 cells assessed as cell viability at 25 uM measured after 24 hrs by CCK-8 assay relative to control; format: toxicity, cell-based; conditions: read-out: Activity
[6] = target: T1, Aminopeptidase (Pseudomonas aeruginosa) (UniProt Q9HZQ8); assay: Inhibition of Pseudomonas aeruginosa aminopeptidase (PaAP) assessed as decrease in fluorescent intensity using fluorescent probe Hcy-NEO-Leu at 1 mM measured after 3 hrs
T1 sequence (whole entry): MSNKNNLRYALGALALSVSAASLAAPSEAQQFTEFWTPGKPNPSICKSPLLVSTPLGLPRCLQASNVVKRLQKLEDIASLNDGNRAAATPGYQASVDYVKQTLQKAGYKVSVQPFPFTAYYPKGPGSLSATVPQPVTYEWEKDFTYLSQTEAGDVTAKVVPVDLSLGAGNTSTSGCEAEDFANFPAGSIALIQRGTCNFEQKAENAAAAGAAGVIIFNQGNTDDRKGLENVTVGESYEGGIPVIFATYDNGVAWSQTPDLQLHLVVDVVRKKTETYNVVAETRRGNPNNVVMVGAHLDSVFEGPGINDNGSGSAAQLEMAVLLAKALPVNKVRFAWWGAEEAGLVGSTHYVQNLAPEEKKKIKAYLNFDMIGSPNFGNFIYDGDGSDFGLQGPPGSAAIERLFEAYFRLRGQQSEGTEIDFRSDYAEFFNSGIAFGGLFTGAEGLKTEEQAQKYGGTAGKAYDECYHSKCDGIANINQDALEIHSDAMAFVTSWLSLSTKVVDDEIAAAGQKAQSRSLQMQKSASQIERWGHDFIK

[7] = test system: Pseudomonas aeruginosa; assay: Anti-biofilm activity against Pseudomonas aeruginosa PAO1 on nail (implant surface) using Hcy-NEO-Leu probe at 50 uM by fluorescence imaging analysis; format: functional, organism-based
[8] = test system: Pseudomonas aeruginosa; assay: Anti-biofilm activity against Pseudomonas aeruginosa PAO1 on surgical suture (implant surface) using Hcy-NEO-Leu probe at 50 uM by fluorescence imaging analysis; format: functional, organism-based
[9] = test system: Pseudomonas aeruginosa; assay: Anti-biofilm activity against Pseudomonas aeruginosa PAO1 on catheter (implant surface) using Hcy-NEO-Leu probe at 50 uM by fluorescence imaging analysis; format: functional, organism-based
[10] = test system: Staphylococcus aureus; assay: Antimicrobial activity against Staphylococcus aureus ATCC25923 assessed as viability at 0.39 to 100 uM; format: functional, organism-based; conditions: dose 0.39-100 µM
[11] = test system: A-375; assay: Cytotoxicity against human A-375 cells assessed as cell viability measured after 24 hrs by CCK-8 assay; format: functional, cell-based
[12] = test system: HK-2; assay: Cytotoxicity against human HK2 cells assessed as cell viability measured after 24 hrs by CCK-8 assay; format: functional, cell-based
[13] = test system: Pseudomonas aeruginosa; assay: Induction of antibiotic susceptibility of Pseudomonas aeruginosa PAO1 assessed as reduction in tobramycin resistance by measuring bio-film fluorescence image at 50 uM incubated for 2 days followed by treated with tobramycin for 24 hrs by Calcein-AM/PI dual staining based Confocal microscopy; format: functional, organism-based; conditions: time 3.0 day
[14] = target: T2, Aminopeptidase (Pseudomonas aeruginosa, UniProt Q9HZQ8); assay: Inhibition of Pseudomonas aeruginosa aminopeptidase (PaAP) assessed as decrease in fluorescent intensity using fluorescent probe Hcy-NEO-Leu measured after 3 hrs
T2 sequence (Q9HZQ8 whole entry): T1 sequence (whole entry)

[15] = test system: Pseudomonas aeruginosa; assay: Anti-biofilm activity against Pseudomonas aeruginosa PAO1 biofilm exposed to RAW264.7 cells assessed as increase in bacterial uptake by macrophages at 50 uM measured after 12 hrs by LB plate assay; format: functional, organism-based
[16] = test system: HepG2; assay: Cytotoxicity against human HepG2 cells assessed as cell viability measured after 24 hrs by CCK-8 assay; format: functional, cell-based
[17] = test system: Pseudomonas aeruginosa; assay: Anti-biofilm activity against Pseudomonas aeruginosa PAO1 at 50 uM by crystal violet staining based optical microscopy relative to control; format: functional
[18] = target: T1, Aminopeptidase (Pseudomonas aeruginosa); assay: Inhibition of aminopeptidase (PaAP) in wild type Pseudomonas aeruginosa assessed as decrease in fluorescent intensity using fluorescent probe Hcy-NEO-Leu at 50 uM measured after 3 hrs
[19] = test system: Pseudomonas aeruginosa; assay: Reduction in aminopeptidase (PaAP) expression level in Pseudomonas aeruginosa PAO1 at 50 to 200 uM by ELISA relative to control; format: functional; conditions: dose 50-200 µM
[20] = target: T1, Aminopeptidase (Pseudomonas aeruginosa); assay: Inhibition of aminopeptidase (PaAP) in Pseudomonas aeruginosa delta(PaAP) assessed as decrease in fluorescent intensity using fluorescent probe Hcy-NEO-Leu at 50 uM measured after 3 hrs
[21] = test system: Pseudomonas aeruginosa; assay: Antimicrobial activity against Pseudomonas aeruginosa PAO1 assessed as viability at 0.39 to 100 uM; format: functional, organism-based; conditions: dose 0.39-100 µM
[22] = test system: BV-2; assay: Cytotoxicity against mouse BV-2 cells assessed as cell viability measured after 24 hrs by CCK-8 assay; format: functional, cell-based
[23] = test system: Pseudomonas aeruginosa; assay: In vivo anti-biofilm activity against pre colonized mature Pseudomonas aeruginosa PAO1 subcutaneously transplanted catheter in mouse model assessed as reduction in fluorescence signal using Hcy-NEO-Leu probe relative to control group; format: functional
[24] = test system: Acinetobacter baumannii; assay: Antimicrobial activity against Acinetobacter baumannii ATCC19606 assessed as viability at 0.39 to 100 uM; format: functional, organism-based; conditions: dose 0.39-100 µM
[25] = test system: Pseudomonas aeruginosa; assay: Anti-biofilm activity against Pseudomonas aeruginosa PAO1 deltaPaAP biofilm exposed to RAW264.7 cells assessed as increase in bacterial uptake by macrophages at 50 uM measured after 12 hrs by LB plate assay; format: functional, organism-based
[26] = test system: Enterococcus faecium; assay: Antimicrobial activity against Enterococcus faecium ATCC29212 assessed as viability at 0.39 to 100 uM; format: functional, organism-based; conditions: dose 0.39-100 µM
[27] = test system: Klebsiella pneumoniae; assay: Antimicrobial activity against Klebsiella pneumonia ATCC 700603 assessed as viability at 0.39 to 100 uM; format: functional, organism-based; conditions: dose 0.39-100 µM
[28] = target: T1, Aminopeptidase (Pseudomonas aeruginosa); assay: Inhibition of aminopeptidase (PaAP) in Pseudomonas aeruginosa PAO1 biofilm assessed as Hcy-NEO-Leu mediated fluorescence at 50 uM measured after 1 hr measured after 48 hrs by CLSM imaging based assay
[29] = test system: Pseudomonas aeruginosa; assay: In vivo anti-biofilm activity against pre colonized mature Pseudomonas aeruginosa PAO1 subcutaneously transplanted catheter in mouse model assessed as reduction in bacterial CFU using Hcy-NEO-Leu probe; format: functional, organism-based
[30] = target: T1, Aminopeptidase (Pseudomonas aeruginosa); assay: Inhibition of aminopeptidase (PaAP) in Pseudomonas aeruginosa PAO1 biofilm assessed as Hcy-NEO-Leu mediated fluorescence at 1 mM measured after 1 hr measured after 48 hrs by CLSM imaging based assay

## CC1(C)C(/C=C/C2=C3Oc4cc(O)ccc4C=C3CCC2)=[N+](CCCCCC(=O)NC[C@H]2O[C@@H](O[C@@H]3[C@@H](O)[C@H](N)C[C@H](N)[C@H]3O[C@H]3O[C@H](CN)[C@@H](O)[C@H](O)[C@H]3N)[C@H](O)[C@@H]2O[C@H]2O[C@@H](CN)[C@@H](O)[C@H](O)[C@H]2N)c2ccccc21
[1]
  viability at 24 h, 25 µM: > 80%
[2]
  viability at 24 h, 25 µM: > 80%
[3]
  viability at 24 h, 25 µM: > 80%
[4]
  Activity: inactive
[5]
  viability at 24 h, 25 µM: > 80%

## O=C(Nc1ccc(Cl)cc1)O[C@H]1[C@H]2c3cc4c(cc3CN3CCC(=C[C@@H]1O)[C@H]23)OCO4
[6]
  inhibition: Active

## CC(C)C[C@H](N)C(=O)Nc1ccc(COc2ccc3c(c2)OC2=C(/C=C/C4=[N+](CCCCCC(=O)NC[C@H]5O[C@@H](O[C@@H]6[C@@H](O)[C@H](N)C[C@H](N)[C@H]6O[C@H]6O[C@H](CN)[C@@H](O)[C@H](O)[C@H]6N)[C@H](O)[C@@H]5O[C@H]5O[C@@H](CN)[C@@H](O)[C@H](O)[C@H]5N)c5ccccc5C4(C)C)CCCC2=C3)cc1
[1]
  viability at 24 h, 25 µM: > 80%
[2]
  viability at 24 h, 25 µM: > 80%
[3]
  viability at 24 h, 25 µM: > 80%
[4]
  Activity: inactive
[5]
  viability at 24 h, 25 µM: > 80%

## O=C1C=C2CCN3Cc4cc5c(cc4[C@H]([C@@H]1O)[C@@H]23)OCO5
[6]
  inhibition: Active

## O=C(COc1ccccc1)O[C@@H]1C(=O)C=C2CCN3Cc4cc5c(cc4[C@H]1[C@@H]23)OCO5
[6]
  inhibition: Active

## O[C@H]1[C@H]2c3cc4c(cc3CN3CCC(=C[C@@H]1OC(=S)Nc1ccccc1)[C@H]23)OCO4
[7]
  Activity: Active
[8]
  Activity: Active
[9]
  Activity: Active
[10]
  Activity: inactive
[11]
  Activity: inactive
[6]
  inhibition: Active
[12]
  Activity: inactive
[13]
  Activity: Active
[14]
  IC50: 36.8 µM
[15]
  Activity: Active
[16]
  Activity: inactive
[17]
  Activity: <50%
[18]
  inhibition: Active
[19]
  Activity: Active
[20]
  inhibition: inactive
[21]
  Activity: inactive
[22]
  Activity: inactive
[23]
  fold change (FC): 2.65
[24]
  Activity: inactive
[25]
  Activity: Active
[26]
  Activity: inactive
[27]
  Activity: inactive
[28]
  inhibition: Active
[29]
  Activity: Active

## O[C@H]1[C@H]2c3cc4c(cc3CN3CCC(=C[C@@H]1O)[C@H]23)OCO4
[6]
  inhibition: Active

## O=C(CSc1ccc(F)cc1)O[C@@H]1C(=O)C=C2CCN3Cc4cc5c(cc4[C@H]1[C@@H]23)OCO5
[6]
  inhibition: Active

## O=C(O[C@H]1[C@H]2c3cc4c(cc3CN3CCC(=C[C@@H]1O)[C@H]23)OCO4)C1CCCCC1
[6]
  inhibition: Active

## CC(C)C[C@H](NC(=O)[C@@H](O)[C@H](N)Cc1ccccc1)C(=O)O [UBENIMEX]
[14]
  IC50: 521 µM
[30]
  inhibition: 100%

## CC(C)(C)[Si](C)(C)OC1CCC(N2C(=S)O[C@H]3[C@H]4c5cc6c(cc5CN5CCC(=C[C@H]32)[C@H]45)OCO6)CC1 (some centres not stated)
[6]
  inhibition: Active

## O=C(NC1CCCCC1)O[C@H]1[C@H]2c3cc4c(cc3CN3CCC(=C[C@@H]1O)[C@H]23)OCO4
[6]
  inhibition: Active

## O=C1O[C@H]2[C@H]3c4cc5c(cc4CN4CCC(=C[C@H]2N1c1ccc(Cl)cc1)[C@H]34)OCO5
[6]
  inhibition: Active

## O=C(O)CCNC(=O)c1ccc(/N=N/c2ccc(O)c(C(=O)O)c2)cc1 [BALSALAZIDE]
[14]
  IC50: 39.2 µM

## S=C1O[C@H]2[C@H]3c4cc5c(cc4CN4CCC(=C[C@H]2N1c1cccnc1)[C@H]34)OCO5
[6]
  inhibition: Active
